Test results reported in patent publication US20050059615A1, “Transmucosal dosage forms for brain-targeted steroid chemical delivery systems” (priority 2003, published 2005).

Legend:
LH = assay: Plasma LH in ovariectomized female rats (radioimmunoassay); format: in vivo, Sprague Dawley rats; conditions: all dosage levels tested: 0.003, 0.01 and 0.03 mg/kg i.v. daily for 5 days
Description: (§1) After recovery from surgery, ovariectomized female rats were divided into four groups and treated once a day for five days intravenously, via a bolus injection through the tail vein, as follows: (1) control, 27% HPβCD solution; (2) 0.003 mg/kg E2-CDS dissolved in 27% HPβCD solution; (3) 0.01 mg/kg E2-CDS dissolved in 27% HPβCD solution; and (4) 0.03 mg/kg E2-CDS dissolved in 27% HPβCD solution. A minimal number of ovariectomized (8 to 12) females were used per group. Intravenous treatments either with E2-CDS or HPβCD (controls) were carried out daily for 5 days beginning 2 days prior to the first day of behavior observations, in a volume of 0.05 mL/100 g body weight.
(§2) An experienced and active male rat was placed in the arena 5 minutes prior to the female. […] The lordosis quotient (LQ) expresses the estrogen effect on sexual receptivity and was calculated as follows: LQ=100×number of lordoses/10 mounts The observation of the sexual behavior of each female was carried out, in the case of E2-CDS, every day for 22 days; in the case of EB, investigations were carried out every day for 10 days. […] Citrated blood samples were taken by retro-orbital sinus puncture under light ether anesthesia. The samples were stored at 4EC for one hour, then centrifuged at 1000 g for 10 minutes. Plasma was separated and stored at −80EC until assayed. Plasma LH concentrations from individual samples were measured by double antibody radioimmunoassay kits obtained from Amersham Pharmacia Biotech, Rome, Italy. […] The limit of detection was 15 pg/mL.
(§3) Behavioral changes were analyzed using the Mann-Whitney U test (Siegel, Nonparametric Statistics for the Behavioral Sciences, New York; McGraw-Hill Book Company, Inc., 1956). The Fisher exact test was used for percentage comparisons (Zar, Biostatistical Analysis, Prentice Hall, Inc., Englewood Cliffs, N.J., 1974). Serum LH data were analyzed for each time and treatment group by analysis of variance (ANOVA) followed by Bonferroni posthoc test.

[1] = tested on: ovariectomized female rats; assay: Lordosis quotient, female rat sexual behavior after ovariectomy; format: in vivo, Sprague Dawley rats
Description: Adult female Sprague Dawley rats (220-250 g) from Charles River Hungary Ltd., Godollo, Hungary, were used. Animals were kept in community cages (4 animals/cage) in a climate-controlled room (23∀2EC, 50-60% humidity), with a 14 hour light, 10 hour dark cycle of artificial lighting, using reversed light/dark cycle. Food and water were available ad libitum.
After a minimum five-day acclimatization period, animals were ovariectomized under ether anesthesia, then were left to recover for 3 weeks before testing (reconvalescence). All animals were treated in accordance with the guidelines of the European Communities Council Directive (86/609/EEC) and studies were permitted by the Institutional Animal Care Commission.
Estradiol benzoate and progesterone were obtained from Sigma Chemical Co. Inc., Budapest, Hungary. 2-Hydroxypropyl-β-cyclodextrin was purchased from Cerestar Inc., Hammond, Ind., US. […] E2-CDS as a 3% complex with HPβCD (E2-CDS-CD) was dissolved in distilled water and diluted with 27% HPβCD solution. E2-CDS-CD was synthesized by Alchem Laboratories Corporation, Alachua, Fla., US, using the procedure of Example 2 above.
as §1
The behavior test was conducted in a plexiglass observation cage during the dark cycle. During behavioral observations, only a dim red light was on.
as §2, §3

corticosterone = assay: Suppression of stress-induced elevation of corticosterone (15-minute restraint stress); format: in vivo, Sprague-Dawley rats; conditions: 15-minute stress
Description: (§4) Ability to suppress stress-induced ACTH and corticosterone is a measure of the anti-inflammatory action of a test substance.
(§5) Adult male Sprague-Dawley rats (Charles River Breeding Laboratories, Wilmington, Mass.) weighing 300-325 grams were selected for use in this study. The rats were housed individually in wire-bottomed cages in a climate-controlled room (23° C.) with a 12 hour light/12 hour dark cycle of artificial lighting. The animals were maintained on this light cycle for 10 days prior to the start of the experiment. Purina cat chow and tap water were provided ad libitum.
(§6) Rats then were subjected to either no stress or light restraint stress for 5 or 15 minutes on days 0, 1, 3, 5 or 7. Each experimental group consisted of six animals. For light restraint testing, the rats were placed in individual wire-mesh cages which permitted limited movement in a lateral or longitudinal direction. Nonstressed control rats were gently removed from their cages and immediately sacrificed. All animals were killed immediately at the end of the stress periods by decapitation. Trunk blood was rapidly collected in iced tubes containing EDTA, and the plasma was separated by cold centrifugation and stored at −80° C. until radioimmunoassay.
Plasma corticosterone was measured in duplicate by radioimmunoassay using a double-antibody technique (Cambridge Medical Tech., Inc., Billerica, Mass.). The intra-assay coefficient of variation was <2.63% and the interassay coefficient of variation was 7.1%. The limit of sensitivity for the assay was 0.39 ng/mL of plasma.
(§7) The significance of differences among mean values was determined by analysis of variance (Anova) and Student-Newman-Keuls tests. The level of probability for all tests was 0.05.

ACTH = assay: Suppression of stress-induced elevation of plasma ACTH (light restraint stress); format: in vivo, Sprague-Dawley rats
Description: as §4, §5, §6
Plasma ACTH was measured in duplicate by radioimmunoassay using a double-antibody technique (Diagnostic Products Corp., Los Angeles, Calif.). The intra-assay coefficient of variation was 8.25%; and the limit of sensitivity for the assay was 17 pg/mL of plasma.
as §7

[2] = 0.003 mg/kg i.v. once a day for 5 days
[3] = 0.01 mg/kg i.v. once a day for 5 days
[4] = 0.03 mg/kg i.v. once a day for 5 days

C[C@]12CC[C@@H]3c4ccc(OC(=O)c5ccccc5)cc4CC[C@H]3[C@@H]1CC[C@@H]2O [estradiol benzoate, reference compound]
effect on plasma LH levels (LH): none of the tested dosages of estradiol benzoate gave statistically significant LH suppression
effect on lordosis quotient [1, 2]: slightly enhanced
period of the LQ effect [1, 2]: 3 to 7 days
statistical significance of LQ effect [1, 2]: not statistically significant
effect on lordosis quotient LQ [1, 3]: slightly increased
period of the LQ effect [1, 3]: day 3 to day 10
statistical significance of LQ effect [1, 3]: not statistically significant
effect on lordosis quotient LQ [1, 4]: significantly enhanced
maximal value of lordosis quotient (LQ) [1, 4]: 27.3
period over which the LQ effect lasted [1, 4]: day 3 to day 8

C[C@@H]1C[C@H]2[C@@H]3CCC4=CC(=O)C=C[C@]4(C)[C@@]3(F)[C@@H](O)C[C@]2(C)[C@@]1(O)C(=O)COC(=O)C1=CN(C)C=CC1 [DEX-CDS, 9-fluoro-11β,17-dihydroxy-16α-methyl-21-{[(1-methyl-1,4-dihydropyridin-3-yl)carbonyl]oxy}pregna-1,4-diene-3,20-dione]
suppression of corticosterone response to stress (corticosterone; day 3, single i.v. DEX-CDS 10 mg/kg or DEX 7.65 mg/kg): 33%
suppression of corticosterone response to stress (corticosterone; day 5, single i.v. DEX-CDS 10 mg/kg): 37%
suppression of corticosterone response to stress (corticosterone; day 7, single i.v. DEX-CDS 10 mg/kg): 56%
effect on stress-related elevations in ACTH (ACTH; 5-minute stress, days 1 and 3, single i.v. DEX-CDS 10 mg/kg or DEX 7.65 mg/kg (equimolar)): blocked
day through which suppression of ACTH elevations continued (ACTH; 5-minute stress, single i.v. DEX-CDS 10 mg/kg): 5 days
effect on stress-related rises in ACTH (ACTH; 15-minute stress, day 3, single i.v. DEX-CDS 10 mg/kg or DEX 7.65 mg/kg): blocked
duration of suppression of elevations in ACTH (ACTH; 15-minute stress, single i.v. DEX-CDS 10 mg/kg): at least 7 days
